The values below come from patent publication US10980889B1 (Revolution Medicines, Inc., priority 2018, dated 2021).

Like-named read-outs stand apart in the source and are kept apart here. Bounds are passed on as bounds.

Holding throughout (settings): two to four hours at 37° C.; for IC50: Homo sapiens, 4 h
For experiment [1], the system named is P-P70S6K (T389). As to the kind of experiment: Cell based AlphaLISA assay, inhibition of P-P70S6K (T389) in MDA-MB-468 cells (mTORC1 substrate). A digest of the protocol:
(§1)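 In MDA-MB-468 cells, phosphorylation of 4EBP1 (Thr37/46), P70S6K (Thr389) and AKT (Ser473) was measured after incubation with inhibitor by AlphaLISA SureFire Ultra on cell lysates, in duplicate. IC50 values came from control-normalized concentration-response regression.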
Background: Alpha assays give light when donor and acceptor beads are brought close together.

Experiment [2] deals with P-4E-BP1 (T37/46). The experiment is described as follows: Cell based AlphaLISA assay, inhibition of P-4E-BP1 (T37/46) in MDA-MB-468 cells (mTORC1 substrate). A digest of the protocol: as §1
Experiment [3] deals with P-Akt (S473). The experiment is described as follows: Cell based AlphaLISA assay, inhibition of P-Akt (S473) in MDA-MB-468 cells (mTORC2 substrate). The method, boiled down: as §1
Setting [4] is: AlphaLisa, read-out: pIC50 for Inhibition of mTORC1 and mTORC2 Substrate Phosphorylation p-P70S6K-(T389) (converted).
Where [5] appears, read: AlphaLisa, read-out: pIC50 for Inhibition of mTORC1 and mTORC2 Substrate Phosphorylation P-4E-BP1-(T37/46) (converted).
[6] abbreviates: AlphaLisa, read-out: pIC50 for Inhibition of mTORC1 and mTORC2 Substrate Phosphorylation p-AKT1/2/3-(S473) (converted).

With `CO[C@H]1C[C@@H]2CC[C@@H](C)[C@@](O)(O2)C(=O)C(=O)N2CCCC[C@H]2C(=O)O[C@H]([C@H](C)C[C@@H]2CC[C@@H](O)[C@H](OC)C2)CC(=O)[C@H](C)/C=C(\C)[C@@H](O)[C@@H](OC)C(=O)[C@H](C)C[C@H](C)/C=C/C=C/C=C/1C` [Rapamycin, (3S,6R,7E,9R,10R,12R,14S,15E,17E,19E,21S,23S,26R,27R,34aS)-9,10,12,13,14,21,22,23,24,25,26,27,32,33,34,34a-hexadecahydro-9,27-dihydroxy-3-[(1R)-2-[(1S,3R,4R)-4-hydroxy-3-methoxycyclohexyl]-1-methylethyl]-10,21-dimethoxy-6,8,12,14,20,26-hexamethyl-23,27-epoxy-3H-pyrido[2,1-c][1,4]-oxaazacyclohentriacontine-1,5,11,28,29(4H,6H,31H)-pentone, reference compound], the IC50 in experiment [1] (AlphaLisa SureFire Ultra, read-out: IC50 for Inhibition of mTORC1 and mTORC2 Substrate Phosphorylation (nM) p-P7056K-(T389)) is 0.2 nM; in experiment [2] (AlphaLisa SureFire Ultra, read-out: IC50 for Inhibition of mTORC1 and mTORC2 Substrate Phosphorylation (nM) p-4E-BP1-(T37/46)), more than 1000 nM; in experiment [3] (AlphaLisa SureFire Ultra, read-out: IC50 for Inhibition of mTORC1 and mTORC2 Substrate Phosphorylation (nM) p-AKT1/2/3-(5473)) it was more than 1000 nM.
For `CO[C@H]1C[C@@H]2CC[C@@H](C)[C@@](O)(O2)C(=O)C(=O)N2CCCC[C@H]2C(=O)O[C@H]([C@H](C)C[C@@H]2CC[C@@H](OC(=O)NCCOCCOCCOCCOCCOCCOCCOCCOCCC(=O)N3CCc4cc(Cn5nc(-c6ccc7oc(N)nc7c6)c6c(N)ncnc65)ccc4C3)[C@H](OC)C2)C[C@H](N=[N+]=[N-])[C@H](C)/C=C(\C)[C@@H](O)[C@@H](OC)C(=O)[C@H](C)C[C@H](C)/C=C/C=C/C=C/1C` [Example 30], the figures for the IC50 in experiment [1] (setting [4]), in experiment [2] (setting [5]) and in experiment [3] (setting [6]) were less than 1 nM, less than 3.16 nM and 3.16 to 31.6 nM, respectively.
For `CO[C@H]1C[C@@H]2CC[C@@H](C)[C@@](O)(O2)C(=O)C(=O)N2CCCC[C@H]2C(=O)O[C@H]([C@H](C)C[C@@H]2CC[C@@H](OC(=O)NCc3cnc(N4CCN(C(=O)CN(C)CC(=O)NCCOCCOCCC(=O)N5CCc6cc(Cn7nc(-c8ccc9oc(N)nc9c8)c8c(N)ncnc87)ccc6C5)CC4)nc3)[C@H](OC)C2)CC(=O)[C@H](C)/C=C(\C)[C@@H](O)[C@@H](OC)C(=O)[C@H](C)C[C@H](C)/C=C/C=C/C=C/1C` [Example 87] the same measures were less than 1 nM, less than 3.16 nM and 3.16 to 31.6 nM.
For the compound `CO[C@H]1C[C@@H]2CC[C@@H](C)[C@@](O)(O2)C(=O)C(=O)N2CCCC[C@H]2C(=O)O[C@H]([C@H](C)C[C@@H]2CC[C@@H](OC(=O)NCCOCCOCCOCCOCCOCCOCCOCCOCCC(=O)NCc3ccc(Cn4nc(-c5ccc6oc(N)nc6c5)c5c(N)ncnc54)cc3)[C@H](OC)C2)C[C@@H](OC)[C@H](C)/C=C(\C)[C@@H](O)[C@@H](OC)C(=O)[C@H](C)C[C@H](C)/C=C/C=C/C=C/1C` [Example 81], the “pIC50 for Inhibition of mTORC1 and mTORC2 Substrate Phosphorylation p-P70S6K-(T389)” value in experiment [1] (AlphaLisa) is “+++ (≥9)”. Further, the “pIC50 for Inhibition of mTORC1 and mTORC2 Substrate Phosphorylation P-4E-BP1-(T37/46)” value in experiment [2] (AlphaLisa) was “++ (8.5 > pIC50 ≥ 7.5)”. For the same compound, the “pIC50 for Inhibition of mTORC1 and mTORC2 Substrate Phosphorylation p-AKT1/2/3-(S473)” value in experiment [3] (AlphaLisa) was “− (<6)”.
As to `CO[C@H]1C[C@@H]2CC[C@@H](C)[C@@](O)(O2)C(=O)C(=O)N2CCCC[C@H]2C(=O)O[C@H]([C@H](C)C[C@@H]2CC[C@@H](OC(=O)NCCOCCOCCOCCOCCOCCOCCOCCOCCC(=O)NCc3ccc(Cn4nc(-c5ccc6oc(N)nc6c5)c5c(N)ncnc54)cc3)[C@H](OC)C2)CC(=O)[C@H](C)/C=C(\C)[C@@H](O)[C@@H](OC)C(=O)[C@H](C)C[C@H](C)/C=C/C=C/C=C/1C` [Example 35], the values for the IC50 in experiment [1] (setting [4]), in experiment [2] (setting [5]) and in experiment [3] (setting [6]) were less than 1 nM, less than 3.16 nM and 3.16 to 31.6 nM, respectively.
On to `CO[C@H]1C[C@@H]2CC[C@@H](C)[C@@](O)(O2)C(=O)C(=O)N2CCCC[C@H]2C(=O)O[C@H]([C@H](C)C[C@@H]2CC[C@@H](OC(=O)NCc3cnc(N4CCN(CCOCCOCCOCCOCCC(=O)N5CCc6cc(Cn7nc(-c8ccc9oc(N)nc9c8)c8c(N)ncnc87)ccc6C5)CC4)nc3)[C@H](OC)C2)C[C@@H](OC)[C@H](C)/C=C(\C)[C@@H](O)[C@@H](OC)C(=O)[C@H](C)C[C@H](C)/C=C/C=C/C=C/1C` [Example 89], for which the IC50 was less than 1 nM in experiment [1] (setting [4]), less than 3.16 nM in experiment [2] (setting [5]) and more than 1000 nM in experiment [3] (setting [6]).
For `CO[C@H]1C[C@@H]2CC[C@@H](C)[C@@](O)(O2)C(=O)C(=O)N2CCCC[C@H]2C(=O)O[C@H]([C@H](C)C[C@@H]2CC[C@@H](OC(=O)NCc3cnc(N4CCN(C(=O)CCOCCN5CCN(c6ncc(C(=O)NCCCCn7nc(-c8ccc9oc(N)nc9c8)c8c(N)ncnc87)cn6)CC5)CC4)nc3)[C@H](OC)C2)CC(=O)[C@H](C)/C=C(\C)[C@@H](O)[C@@H](OC)C(=O)[C@H](C)C[C@H](C)/C=C/C=C/C=C/1C` [Example 112], in that order: less than 1 nM, more than 1000 nM and more than 1000 nM.
In the case of `CO[C@H]1C[C@@H]2CC[C@@H](C)[C@@](O)(O2)C(=O)C(=O)N2CCCC[C@H]2C(=O)O[C@H]([C@H](C)C[C@@H]2CC[C@@H](OC(=O)NCc3cnc(N4CCN(C(=O)CCOCCN5CCN(c6ncc(C(=O)N7CCc8cc(Cn9nc(-c%10cnc%11[nH]ccc%11c%10)c%10c(N)ncnc%109)ccc8C7)cn6)CC5)CC4)nc3)[C@H](OC)C2)CC(=O)[C@H](C)/C=C(\C)[C@@H](O)[C@@H](OC)C(=O)[C@H](C)C[C@H](C)/C=C/C=C/C=C/1C` [Example 110], the IC50 in experiment [1] (setting [4]) was 1 to 10 nM; in experiment [2] (setting [5]), more than 1000 nM; in experiment [3] (setting [6]), more than 1000 nM.
For the compound `CO[C@H]1C[C@@H]2CC[C@@H](C)[C@@](O)(O2)C(=O)C(=O)N2CCCC[C@H]2C(=O)O[C@H]([C@H](C)C[C@@H]2CC[C@@H](OC(=O)NCCOCCOCCOCCOCCOCCOCCOCCOCC(=O)N3CCc4cc(Cn5nc(-c6ccc7oc(N)nc7c6)c6c(N)ncnc65)ccc4C3)[C@H](OC)C2)C[C@@H](O)[C@H](C)/C=C(\C)[C@@H](O)[C@@H](OC)C(=O)[C@H](C)C[C@H](C)/C=C/C=C/C=C/1C` [Example 28], the figures for the IC50 in experiment [1] (setting [4]), in experiment [2] (setting [5]) and in experiment [3] (setting [6]) were less than 1 nM, less than 3.16 nM and more than 1000 nM, respectively.
As for `CO[C@H]1C[C@@H]2CC[C@@H](C)[C@@](O)(O2)C(=O)C(=O)N2CCCC[C@H]2C(=O)O[C@H]([C@H](C)C[C@@H]2CC[C@@H](OC(=O)NCc3cnc(N4CCN(C(=O)CCOCCN5CCN(c6ncc(C(=O)N7CCc8cc(Cn9nc(-c%10ccc%11oc(N)nc%11c%10)c%10c(N)ncnc%109)ccc8C7)cn6)CC5)CC4)nc3)[C@H](OC)C2)CC(=O)[C@H](C)/C=C(\C)[C@@H](O)[C@@H](OC)C(=O)[C@H](C)C[C@H](C)/C=C/C=C/C=C/1C` [Example 109], the IC50 in experiment [1] (setting [4]) is 10 to 1000 nM; in experiment [2] (setting [5]) it was more than 1000 nM; in experiment [3] (setting [6]), more than 1000 nM.
As for `CO[C@H]1C[C@@H]2CC[C@@H](C)[C@@](O)(O2)C(=O)C(=O)N2CCCC[C@H]2C(=O)O[C@H]([C@H](C)C[C@@H]2CC[C@@H](OC(=O)NCc3cnc(N4CCN(C(=O)CCOCCN5CCN(C(=O)CCC(=O)NCCCCn6nc(-c7cnc8[nH]ccc8c7)c7c(N)ncnc76)CC5)CC4)nc3)[C@H](OC)C2)CC(=O)[C@H](C)/C=C(\C)[C@@H](O)[C@@H](OC)C(=O)[C@H](C)C[C@H](C)/C=C/C=C/C=C/1C` [Example 116], the IC50 is less than 1 nM in experiment [1] (setting [4]), less than 3.16 nM in experiment [2] (setting [5]) and more than 1000 nM in experiment [3] (setting [6]).
For `CO[C@H]1C[C@@H]2CC[C@@H](C)[C@@](O)(O2)C(=O)C(=O)N2CCCC[C@H]2C(=O)O[C@H]([C@H](C)C[C@@H]2CC[C@@H](OC(=O)NCc3cnc(N4CCN(c5ncc(C(=O)N6CCN(c7ncc(C(=O)NCCCCn8nc(-c9ccc%10oc(N)nc%10c9)c9c(N)ncnc98)cn7)CC6)cn5)CC4)nc3)[C@H](OC)C2)CC(=O)[C@H](C)/C=C(\C)[C@@H](O)[C@@H](OC)C(=O)[C@H](C)C[C@H](C)/C=C/C=C/C=C/1C` [Example 138] the same measures were less than 1 nM, less than 3.16 nM and less than 3.16 nM.
For `CO[C@H]1C[C@@H]2CC[C@@H](C)[C@@](O)(O2)C(=O)C(=O)N2CCCC[C@H]2C(=O)O[C@H]([C@H](C)C[C@@H]2CC[C@@H](OC(=O)N3CCc4nc(N5CCN(C(=O)CCOCCN6CCN(c7ncc(C(=O)N8CCc9cc(Cn%10nc(-c%11ccc%12oc(N)nc%12c%11)c%11c(N)ncnc%11%10)ccc9C8)cn7)CC6)CC5)ncc4C3)[C@H](OC)C2)C[C@@H](OC)[C@H](C)/C=C(\C)[C@@H](O)[C@@H](OC)C(=O)[C@H](C)C[C@H](C)/C=C/C=C/C=C/1C` [Example 117] the same measures were less than 1 nM, less than 3.16 nM and 3.16 to 31.6 nM.
Take `CO[C@H]1C[C@@H]2CC[C@@H](C)[C@@](O)(O2)C(=O)C(=O)N2CCCC[C@H]2C(=O)O[C@H]([C@H](C)C[C@@H]2CC[C@@H](OC(=O)NCc3cnc(N4CCN(C(=O)CCOCCN5CCN(c6ncc(C(=O)N7CCc8cc(Cn9nc(-c%10ccc%11oc(N)nc%11c%10)c%10c(N)ncnc%109)ccc8C7)cn6)CC5)CC4)nc3)[C@H](OC)C2)C[C@H](N=[N+]=[N-])[C@H](C)/C=C(\C)[C@@H](O)[C@@H](OC)C(=O)[C@H](C)C[C@H](C)/C=C/C=C/C=C/1C` [Example 137]: the results for the IC50 in experiment [1] (setting [4]), in experiment [2] (setting [5]) and in experiment [3] (setting [6]) were less than 1 nM, less than 3.16 nM and 3.16 to 31.6 nM, respectively.
